Consider two compounds from patent publication US20250243180A1, “TARGETED PROTEIN DEGRADATION” (Monte Rosa Therapeutics AG, priority 2023, published 2025).

The subject of one data set is NEK7. Description: NEK7 degradation in spleen and PBMC in rabbit gout model (JESS). To be noted: rabbits, 10 mg/kg QD×7, harvested 2 h after the final dose. It counts as in vivo. The procedure:
MSU crystals were prepared by dissolving uric acid (Aladdin, cat #U105582) in boiling water (1 g in 200 mL with 6 mL of 1 N NaOH). PH value was adjusted to 7.2 by HCl. The solution was stirred and cooled to room temperature and stored at 4° C. overnight. The precipitate was filtered with filter paper and dried under low heat to obtain MSU crystals. New Zealand White rabbits received an intra-articular injection of 1 mL of MSU crystals (50 mg/mL) into both knees (MSU group) or PBS (as vehicle, control group). n=10 for MSU groups; n=6 for PBS group. […]
On Day 7, tissue was harvested 2 hours post final dose. […] Lysates were prepared in M-PER lysis buffer and protein concentration was measured using Pierce rapid gold BCA protein Assay Kit (Thermo Fisher) according to manufacturer's protocol. […]
(a) To determine NEK7 degradation, spleens and peripheral blood mononuclear cells (PBMC) were analyzed by JESS for NEK7 and normalized to α-Tubulin from five representative animals. (b) The degree of joint swelling was determined by caliper measurements at the indicated time points. (c) Rabbit bone tissue sections were stained and quantified for anti-CD31 immunohistochemistry. Results expressed as mean±SEM. […]

A further data set has as its system IL-1β. The data set can be described thus: Ex vivo whole blood stimulation (LPS/nigericin) IL-1β ELISA after dosing of NHP. It counts as in vivo, cynomolgus monkeys. To be noted: oral 5 mg/kg for 5 days. The procedure: Within 0.5 h of blood collection from animals that received vehicle or Compound 14 at 5 mg/kg, whole blood was aliquoted into two 0.25 mL aliquots. One aliquot was used as baseline, and the other as the ex vivo stimulated condition. For stimulation, whole blood was incubated with 100 ng/mL Lipopolysaccharide from Escherichia coli 0111:B4 (LPS-EB) for 3 h, followed by 10 μM nigericin for 2 h. Plasma was then isolated and concentrations of IL-1β in plasma isolated from ex vivo whole blood stimulation were measured using the IL-1β ELISA R&D Systems kit (Cat. #DY1318), with 50 μL per sample diluted with 50 μL reagent diluent/well. After reading absorbance on plate reader, standard curve and sample IL-1β levels were analyzed using 4PL method. […]
In Table 9, suppression of ex vivo inflammasome activation following degradation of NEK7 in NHP is reported. Whole blood was isolated at the indicated time points from NHP dosed orally 5 mg/kg of Compound 14 over 5 days (day 1 through 5), n=2. Days 10 and 15 correspond to recovery period, 5 or 10 days after drug administration, respectively. Whole blood was stimulated ex vivo with 100 ng/mL LPS for 3 h and 10 μM nigericin for 2 h. Plasma was isolated and IL-1β was measured by ELISA. […]
Background: In an ELISA, binding on a coated surface is turned into a signal by an enzyme label.

The nature of data set [1]: Plasma concentration in NHP, multiple-dose study 5 mg/kg oral. Conditions: both sexes, cynomolgus monkey. It counts as in vivo, cynomolgus monkeys. The procedure: Non-naïve male and female non-human primate (NHP) cynomolgus monkeys were orally administered with 5 consecutive daily doses of Compound 14 at 5 mg/kg, n=2 per dose group, 1 male and 1 female. Compound formulation was prepared on the day of administration in 0.5% methyl cellulose (4000 cps) in water and animals were fasted overnight. Plasma collected post dose were analyzed using a non GLP LC/MS/MS bioanalytical method to evaluate the compound concentration. Whole blood collected post dose were processed to PBMC and were analyzed using western blot method. Plasma pharmacokinetics and PMBC pharmacodynamics were assessed longitudinally throughout dosing and following dosing cessation.
In Table 7, plasma was isolated 6 h after final dose (dosed once or over five consecutive days), n=2. Plasma collected post dose were analyzed using a non GLP LC/MS/MS bioanalytical method to evaluate the compound concentration.

A further data set has as its system Caspase-1 activity. Description: Caspase-1 activity in human monocyte-derived macrophages, LPS/MSU stimulation. It counts as cell-based. The procedure: Human monocytes were enriched and isolated from a buffy coat of whole blood with a RosetteSep™ Human Monocyte Enrichment Cocktail (Cat.No. 15068, StemCell) and Ficoll-Plaque PLUS (Cat.No. H8889, Sigma). Monocytes were differentiated into macrophages by treatment with 100 ng/mL M-CSF for 6 days at 37° C., 5% CO2. Differentiated macrophages were seeded overnight (50,000 cells/well) in 100 μL of medium in a 96-well white-bottom plate at 37° C., 5% CO2. Cells were treated with a concentration range of MGD or the NLRP3 inhibitor selnoflast (Cat.No. HY-132831, MedChemExpress) for 24 h prior to stimulation with monosodium urate crystals (MSU). Macrophages were stimulated with […] lipopolysaccharide (LPS) and 0.2 mg/mL MSU for 6 h. Medium of stimulated macrophages were collected and assayed for caspase-1 activity directly (Promega G9951) as well as IL-1β (Promega W6010), according to manufacturer's instructions.
(a, b) Human monocyte-derived macrophages pre-treated with a dose-response of Compound 14 or selnoflast (NLRP3 inhibitor) for 24 h and stimulated with a combination of lipopolysaccharide (LPS) and monosodium urate crystals (MSU) for 6 h prior to supernatant collection. Monocytes were isolated from eight human donors. Caspase-1 (a) and IL-1β (b) in the supernatant are measured and data are expressed as percentage relative to mean values of DMSO conditions for each donor (technical triplicates). Means of eight donors are plotted and analyzed using a four-parameter logistic regression model.

For `CC(C)(C(=O)NCc1cc(Cl)c(C2CCC(=O)NC2=O)c(Cl)c1)c1ncc(C#N)cn1` (stereo not drawn) [Compound 16, 2-(5-cyanopyrimidin-2-yl)-N-(3,5-dichloro-4-(2,6-dioxopiperidin-3-yl)benzyl)-2-methyl-propanamide], the “degradation of NEK7 in spleen and PBMCs” value in the data set on NEK7 is “greater than 50%”.

As to `Cc1cnc(C(C)(C)C(=O)NCc2cc(Cl)c(C3CCC(=O)NC3=O)c(Cl)c2)nc1` (stereo not drawn) [Compound 14, N-(3,5-dichloro-4-(2,6-dioxopiperidin-3-yl)benzyl)-2-methyl-2-(5-methylpyrimidin-2-yl)-propanamide], the “Percent IL-1β relative to predose” value with IL-1β (Day 1, 6 h) is listed as 1%; in the data set on IL-1β (Day 1, 24 h) it was 45%; in the data set with IL-1β (Day 5, 6 h), 0%; with IL-1β (Day 5, 24 h), 78%; with IL-1β (Day 10, 24 h (recovery)), 91.5%; with IL-1β (Day 15, 24 h (recovery)), 141%. The concentration at 6 h is 5.4 ng/mL in data set [1] (Day 1, 6 h post final dose) and 7.5 ng/mL in data set [1] (Day 5, 6 h post final dose). The “Caspase-1 activity Imax” value in the data set with Caspase-1 activity (24 h pre-treatment, LPS + MSU 6 h, eight donors) amounted to 81%. For the same compound, the IC50 with Caspase-1 activity (Homo sapiens, Macrophage, 24 h pre-treatment, LPS + MSU 6 h, eight donors) came out at 1.6 nM. The “inhibition of NLRP3-driven activation of human macrophages” value with Caspase-1 activity (LPS/MSU stimulation) is recorded as “dose-dependent inhibition”.

In general, IC50 refers to the midpoint of a concentration-inhibition curve.
